pEC50: −log10 of the molar value.
Tests used:
[1] = biological target: T1, Human GPR120 short form (short splice variant, NM_001195755.1) (Homo sapiens, UniProt Q5NUL3); test: Human GPR120 Calcium Flux Assay; assay type: cell-based; conditions: HEK-293 cells, 4200 cells/well, read-out: Human GPR120 Calcium Flux Assay Procedure B EC50
T1 construct: expressed in transfected cells; host or cells: HEK293
T1 sequence (Q5NUL3 1-361): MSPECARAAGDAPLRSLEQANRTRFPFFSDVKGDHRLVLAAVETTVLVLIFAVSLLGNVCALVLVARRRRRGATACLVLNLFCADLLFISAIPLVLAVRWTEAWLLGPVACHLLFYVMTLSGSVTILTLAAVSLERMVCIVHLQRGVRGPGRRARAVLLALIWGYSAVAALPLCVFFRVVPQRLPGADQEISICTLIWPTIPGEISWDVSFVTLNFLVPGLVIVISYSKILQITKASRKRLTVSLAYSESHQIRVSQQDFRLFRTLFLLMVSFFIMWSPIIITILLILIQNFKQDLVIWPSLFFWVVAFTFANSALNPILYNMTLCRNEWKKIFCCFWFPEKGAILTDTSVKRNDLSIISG
From the text: In Vitro Assay: Human GPR120 in Calcium Flux Assay
This in vitro assay serves to assess test compound agonist activity against the short splice variant (SVS with Accession number NM_001195755.1 confirmed by sequencing data) of the GPR120 receptor. The Human Short splice variant #2 (NM_001195755.1) is missing an in-frame coding exon compared to variant 1 (the Human Long splice variant NM_181745.3), resulting in a shorter isoform (GPR120-S) lacking a 16 aa protein segment compared to isoform GPR120-L. The assay platform utilizes HEK-293 cells stably transfected to express the Human GPR120 short form. These cells are first loaded with the Ca^+2 sensitive dye, Fluo-4 NW. Upon stimulation, intracellular released Ca^+2 can bind to the dye and alter its fluorescence intensity. This increase in fluorescence signal, and thus the flux in intracellular [Ca^2+], is detected and quantitated by fluorescence imaging using a FLIPR reader. The effect of the agonist is measured as a function of concentration and used to calculate an EC50 based upon a response curve. […]
In this procedure 4200 cells/well were employed.
A Human GPR120 clone (Genbank accession number NM_001195755.1) was placed into the pcDNA3.1 mammalian expression vector carrying the neomycin resistance gene. A stable mammalian cell was generated by placing the above clone into a HEK293 background. Clonal cells responding to long chain fatty acids had expression levels of GPR120 confirmed by RT-qPCR. Human HEK-GPR120 cells were cultured in Dulbecco's Modified Eagle's Medium (DMEM)/F12 medium supplemented with 10% fetal bovine serum (FBS), 1% L-Glutamine and 1% penicillin/streptomycin and 0.5 mg/ml G-418. Cells were split 2 times a week to keep the cells in the log-phase growth.
In preparation for the assay, HEK cells stably transfected with Human GPR120 (2.5K cells per well in 25 uL growth medium) were seeded into 384-well plates and then incubated overnight (37° C., 5% CO2). The next day, the media was changed to 20 μL assay buffer and the cell starved for 1 h at 37° C. The dye loading solution (2× dye) was prepared using 10 mL assay buffer, 100 μL of 250 mM probenecid, 1 bottle of Component A, and 20 μl of dye in DMSO. Twenty μL of the 2× dye loading buffer was then added to each well. The plates were incubated at 37° C. for 30 min, then at room temperature for an additional 15 minutes, before performing the assay on FLIPR.
The assay was performed on a FLIPR plate reader using the following parameters. Baseline was read for 10 seconds at 1 sec intervals. The program was set to transfer 10 μL of ligand from compound plate to cell plate after baseline reading. Aspiration was executed at: 10 μL/sec speed, 4.6 μL height; Dispensing was executed at: 30 μL/sec speed, 45 μL height. After compound addition, each well was read for 300 sec, with measurements collected at 1 sec intervals.
The kinetic data from the FLIPR was based upon a 5 minute window for data collection. The fluorescence of each sample well was used for individual calculations of a normalized RFU value, which was defined as maximum response minus the minimum response. The normalized fluorescence reading (RFU) was calculated as follows:
The data were fitted to a sigmoidal dose-response curve with a variable Hill slope (<2) using nonlinear regression with GraphPad Prism 5.0 to calculate the EC50 values. The Fitting Equation was: Y=Bottom+(Top−Bottom)/(1+10^((Log EC50−X)*HillSlope)), where X is the log of the concentration and Y is the response.

GPR40 = GPR40 (UniProt O14842); test: GPR40 Calcium Flux Assay; assay type: cell-based; conditions: transfected HEK293 cells stably expressing human or rat GPR40; species not given
Description: Biological Example 3: In Vitro Assay
Compounds were tested in a calcium flux assay using transfected HEK293 cells stably expressing either human GPR40 or rat GPR40. Human GPR40 expressing cells were cultured in DMEM-High Glucose media supplemented with 10% fetal bovine serum, 1×L-Glutamine, 1× Penicillin/Streptomycin and 500 μg/mL G418. Rat GPR40 expressing cells were cultured in DMEM-High Glucose media supplemented with 10% fetal bovine serum and 1 μg/mL puromycin. Cells were plated into poly-D-lysine coated 384-well plates and cultured overnight in a 37° C. humidified tissue culture incubator under 5% CO2/90% O2 atmosphere.
On the day of the experiment, the culture media was replaced with assay buffer (HBSS, 20 mM HEPES, 0.1% BSA) and the cells incubated at 37° C. for 1 h. Calcium-sensitive fluorescent dye (Fluo 8 No-Wash Calcium Dye, ABD Bioquest) was then added and the cells incubated for another 30 min at 37° C. followed by 15 min at room temperature while protected from the light. The cell plate and a plate of diluted compounds of Formula (I) were loaded into a fluorescent plate reader that added compounds onto the cells while measuring the fluorescence intensity of each well. The plate reader recorded fluorescence intensity at 1 second intervals for 8 min and provided the data for analysis in an Excel format. EC50 values were calculated using Prism (GraphPad) software.

| SMILES | pEC50 [1] | pEC50 (GPR40) |
| --- | --- | --- |
| O=C(O)CCc1ccc(OCC2=C(C3CCCC3)COC2)cc1 [compound 632] | 6.37 | 5.59 |
| Cc1ccc(C2=C(COc3ccc(CCC(=O)O)c(C)c3C)COCC2)cc1F [compound 659] | 7.18 | < 5.00 |
| Cc1ccc(C2=C(COc3ccc(CCC(=O)O)c(C(F)(F)F)c3)COCC2)c(F)c1 [compound 684] | 6.10 | 5.57 |
| Cc1ccc(C2=C(COc3ccc(CCC(=O)O)c(C(F)(F)F)c3)COCC2)cc1F [compound 685] | 6.01 | 6.08 |
| O=C(O)CCc1ccc(OCC2=C(c3ccc(OC(F)(F)F)cc3)CCOC2)cc1C(F)(F)F [compound 686] | < 5.30 | 6.13 |
| C=C(C1=C(COc2ccc(CCC(=O)O)c(C(F)(F)F)c2)COCC1)c1ccccc1 [compound 687] | < 5.30 | 7.27 |
| O=C(O)CCc1ccc(OCC2=C(Cc3ccccc3)CCOC2)cc1 [compound 688] | 5.53 | 5.49 |
| Cc1ccc(CC2=C(COc3ccc(CCC(=O)O)cc3)COCC2)cc1 [compound 691] | 5.62 | 5.44 |
| Cc1ccc(CC2=C(COc3ccc(CCC(=O)O)c(C(F)(F)F)c3)COCC2)cc1 [compound 692] | < 5.30 | 6.49 |
| O=C(O)CCc1ccc(OCC2=C(Cc3ccc(Cl)cc3)CCOC2)cc1 [compound 695] | < 5.30 | 5.50 |
| O=C(O)CCc1ccc(OCC2=C(Cc3ccc(Cl)cc3)CCOC2)cc1C(F)(F)F [compound 696] | < 5.30 | 6.66 |
| COc1ccc(CC2=C(COc3ccc(CCC(=O)O)cc3)COCC2)cc1 [compound 697] | < 5.30 | ~4.72 |
| COc1ccc(CC2=C(COc3ccc(CCC(=O)O)c(C(F)(F)F)c3)COCC2)cc1 [compound 698] | < 5.30 | 6.47 |
| C=C(C1=C(COc2ccc(CCC(=O)O)cc2)COCC1)c1ccccc1 [compound 699] | < 5.30 | 5.76 |
| CC(C1=C(COc2ccc(CCC(=O)O)c(C(F)(F)F)c2)COCC1)c1ccccc1 (stereo not shown) [compound 701] | < 5.30 | 6.84 |
| C=C(C1=C(COc2ccc(CCC(=O)O)cc2)COCC1)c1ccc(F)cc1 [compound 702] | < 5.30 | 5.81 |
| C=C(C1=C(COc2ccc(CCC(=O)O)c(C(F)(F)F)c2)COCC1)c1ccc(F)cc1 [compound 703] | < 5.30 | 7.17 |
| C=C(C1=C(COc2ccc(CCC(=O)O)c(C(F)(F)F)c2)COCC1)c1ccc(C(F)(F)F)cc1 [compound 705] | < 5.30 | 7.14 |

Results, then the compound that gave them:

| pEC50 [1] | pEC50 (GPR40) | SMILES |
| --- | --- | --- |
| < 5.30 | 7.42 | C=C(C1=C(COc2ccc(CCC(=O)O)c(C(F)(F)F)c2)COCC1)c1ccccc1Cl [compound 706] |
| 6.08 | 6.49 | CCCCC1=C(COc2ccc(CCC(=O)O)c(C(F)(F)F)c2)COCC1 [compound 707] |
| < 5.30 | 5.64 | O=C(O)CCc1ccc(OCC2=C(Cc3ccc(Cl)cc3)CCOC2)cc1Cl [compound 709] |
| < 5.30 | 6.15 | O=C(O)CCc1ccc(OCC2=C(Cc3ccccc3)CCOC2)cc1Cl [compound 713] |
| 5.72 | < 5.00 | O=C(O)CCc1cc(F)c(OCC2=C(Cc3ccccc3)CCOC2)c(F)c1 [compound 714] |
| 5.74 | 6.24 | CCC1=C(COc2ccc(CCC(=O)O)c(C(F)(F)F)c2)COCC1 [compound 716] |
| 5.88 | 6.88 | CC(C)CC1=C(COc2ccc(CCC(=O)O)c(C(F)(F)F)c2)COCC1 [compound 717] |
| < 5.30 | 5.85 | O=C(O)CCc1ccc(OCC2=C(CC3CCCCC3)CCOC2)cc1C(F)(F)F [compound 718] |
| < 5.30 | 5.99 | CCCCCCC1=C(COc2ccc(CCC(=O)O)c(C(F)(F)F)c2)COCC1 [compound 719] |
| < 5.30 | 6.47 | C=C(C1=C(COc2ccc(CCC(=O)O)c(Cl)c2)COCC1)c1ccccc1 [compound 720] |
| 5.62 | < 5.00 | O=C(O)CCc1cc(F)c(OCC2=C(Cc3ccc(Cl)cc3)CCOC2)c(F)c1 [compound 721] |
| 5.92 | 6.01 | CC(C)CCC1=C(COc2ccc(CCC(=O)O)c(C(F)(F)F)c2)COCC1 [compound 722] |
| < 5.30 | < 5.00 | C=C(C1=C(COc2ccc(CCC(=O)O)cc2F)COCC1)c1ccccc1 [compound 723] |
| 6.56 | < 5.00 | Cc1c(CCC(=O)O)ccc(OCC2=C(C3CCC3)CCOC2)c1C [compound 724] |
| 5.63 | 6.23 | O=C(O)CCc1ccc(OCC2=C(C3CCC3)CCOC2)cc1Cl [compound 725] |
| 5.80 | 6.41 | O=C(O)CCc1ccc(OCC2=C(C3CCCC3)CCOC2)cc1Cl [compound 727] |
| 5.57 | 6.07 | O=C(O)CCc1ccc(OCC2=C(C3CCCCC3)CCOC2)cc1C(F)(F)F [compound 729] |
| 6.09 | 7.03 | O=C(O)CCc1ccc(OCC2=C(C3CCCC3)CCOC2)cc1C(F)(F)F [compound 731] |
| < 5.30 | 5.97 | CC(C)CC1=C(COc2ccc(CCC(=O)O)c(Cl)c2)COCC1 [compound 732] |
| 5.74 | < 5.00 | CC(C)CC1=C(COc2c(F)cc(CCC(=O)O)cc2F)COCC1 [compound 733] |
| 4.99 | 6.13 | CCC(C)C1=C(COc2ccc(CCC(=O)O)c(C(F)(F)F)c2)COCC1 (stereo not shown) [compound 734] |
| 5.66 | 6.31 | CC(C)C1=C(COc2ccc(CCC(=O)O)c(C(F)(F)F)c2)COCC1 [compound 735] |
| 6.21 | < 5.00 | O=C(O)CCc1cc(F)c(OCC2=C(C3CCCC3)CCOC2)c(F)c1 [compound 736] |
| 6.03 | 5.57 | O=C(O)CCc1ccc(OCC2=C(C3CCCC3)CCOC2)cc1 [compound 738] |
| 5.94 | 5.68 | O=C(O)CCc1ccc(OCC2=C(C3C=CCC3)CCOC2)cc1 (stereo not shown) [compound 740] |
| 6.34 | 5.84 | O=C(O)CCc1ccc(OCC2=C(C3CCCC3)COCC2)cc1 [compound 764] |
